We go through 31 molecules from patent publication US9409914B2, “Triazolo[4,5-d]pyrimidine derivatives” (Merck Patent GmbH, priority 2012, dated 2016).

Molecules are shown by their SMILES.

This experiment deals with GCN2 (Homo sapiens, UniProt Q9P2K8). As to the kind of experiment: GCN2 enzyme assay (TR-FRET Lanthascreen, phosphorylation of GFP-eIF2alpha). The class given is biochemical. The note with it: 10 μM ATP, 80 nM GFP-eIF2alpha, 30 nM GCN2, room temperature. The text has this: GCN2: Assay principle & conditions
This assay can quantificate the activity of the serin kinase GCN2 (general control non-derepressible-2).
This kinase is involved in the stress metabolism of cells. It is activated upon starvation (amino acid depletion). Its natural substrate is eIF2a (eukaryotic initiation factor 2 alpha subunit), a translation factor, which gets activated (phosphorylated) by GCN2 in case of an amino acid bottleneck in the cells. This in turn leads to a halt of the protein synthesis. Inhibition of GCN2 results in stopping this mechanism: The cell can not stop protein production upon “starvation” stress.
The assay is run in two steps: the enzymatic reaction and the detection step. In the first step GCN2 is incubated with 10 μM ATP and 80 nM of the GFP-labelled substrate eIF2alpha at room temperature.
The enzymatic reaction is stopped by addition of EDTA. The amount of phosphorylated eIF2alpha is determined by TR-FRET (Lanthascreen): A complex is formed consisting of antibody and GFP labelled phospho-eIF2a, which allows a FRET upon exitation at 340 nm.
The GCN2-activity is directly proportional to the ratio of fluorescence units at the emission wavelengthh 520 nm (phosphopeptide-sensitive wavelength=emission of GFP) to the units at 495 nm (reference wavelength=emission of Terbium-chelate).
Final Concentrations in the Enzymatic Reaction

GCN2, sequence (Q9P2K8 whole entry, species assumed): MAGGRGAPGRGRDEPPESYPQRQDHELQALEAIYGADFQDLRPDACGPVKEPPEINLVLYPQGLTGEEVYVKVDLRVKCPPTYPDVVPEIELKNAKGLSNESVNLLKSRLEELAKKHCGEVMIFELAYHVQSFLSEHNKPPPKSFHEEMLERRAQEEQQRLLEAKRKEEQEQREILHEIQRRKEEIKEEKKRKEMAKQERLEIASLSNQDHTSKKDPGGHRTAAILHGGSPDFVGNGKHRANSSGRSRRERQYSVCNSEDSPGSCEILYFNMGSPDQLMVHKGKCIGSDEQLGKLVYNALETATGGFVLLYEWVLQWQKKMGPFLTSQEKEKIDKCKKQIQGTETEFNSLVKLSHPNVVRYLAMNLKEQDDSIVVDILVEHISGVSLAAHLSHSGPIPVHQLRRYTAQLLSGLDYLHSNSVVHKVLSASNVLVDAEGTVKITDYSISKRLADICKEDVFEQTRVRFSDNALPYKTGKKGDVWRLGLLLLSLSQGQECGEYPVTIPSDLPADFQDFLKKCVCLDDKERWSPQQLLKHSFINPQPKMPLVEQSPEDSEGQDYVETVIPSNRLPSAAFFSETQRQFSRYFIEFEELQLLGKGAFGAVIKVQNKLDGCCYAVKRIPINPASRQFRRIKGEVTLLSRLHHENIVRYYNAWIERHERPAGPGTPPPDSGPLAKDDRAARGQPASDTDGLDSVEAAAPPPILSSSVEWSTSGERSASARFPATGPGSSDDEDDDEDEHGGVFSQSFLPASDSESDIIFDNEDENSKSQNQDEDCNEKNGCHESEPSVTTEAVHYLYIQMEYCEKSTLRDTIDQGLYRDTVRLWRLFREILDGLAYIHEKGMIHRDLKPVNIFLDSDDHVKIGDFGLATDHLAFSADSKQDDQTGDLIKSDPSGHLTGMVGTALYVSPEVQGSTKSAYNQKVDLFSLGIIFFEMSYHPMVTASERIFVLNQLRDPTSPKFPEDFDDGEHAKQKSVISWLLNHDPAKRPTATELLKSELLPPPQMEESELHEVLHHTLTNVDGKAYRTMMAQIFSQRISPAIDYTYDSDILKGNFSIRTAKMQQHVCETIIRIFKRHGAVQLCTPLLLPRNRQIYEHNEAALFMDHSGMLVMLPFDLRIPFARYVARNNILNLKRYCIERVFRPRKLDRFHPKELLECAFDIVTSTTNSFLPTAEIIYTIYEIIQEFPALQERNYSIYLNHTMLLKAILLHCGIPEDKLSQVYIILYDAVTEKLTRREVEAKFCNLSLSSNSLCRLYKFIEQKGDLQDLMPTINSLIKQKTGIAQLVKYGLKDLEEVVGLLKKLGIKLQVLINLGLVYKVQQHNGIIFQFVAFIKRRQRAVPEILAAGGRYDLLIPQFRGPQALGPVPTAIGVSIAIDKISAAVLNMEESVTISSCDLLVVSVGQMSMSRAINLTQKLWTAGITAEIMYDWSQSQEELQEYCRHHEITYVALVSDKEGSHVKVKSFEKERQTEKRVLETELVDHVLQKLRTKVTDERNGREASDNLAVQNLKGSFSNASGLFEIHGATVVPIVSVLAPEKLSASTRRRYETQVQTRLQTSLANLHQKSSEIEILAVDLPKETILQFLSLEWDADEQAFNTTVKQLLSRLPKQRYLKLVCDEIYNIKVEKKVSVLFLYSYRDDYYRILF

`NS(=O)(=O)c1ccc(-n2nnc3cnc(Nc4cnn(CCn5cccn5)c4)nc32)cc1` [Compound A135, 4-{5-[1-(2-pyrazol-1-yl-ethyl)-1H-pyrazol-4-ylamino]-[1,2,3]triazolo[4,5-d]pyrimidin-3-yl)-benzenesulfonamide] had an IC50 of less than 300 nM. For `Cn1cc(Nc2ncc3nnn(-c4cnn(C)c4)c3n2)cn1` [Compound A21, (1-methyl-1H-pyrazol-4-yl)-[3-(1-methyl-1H-pyrazol-4-yl)-3H-[1,2,3]triazolo[4,5-d]pyrimidin-5-yl]-amine] the value was less than 300 nM; for `CCn1cc(Nc2ncc3nnn(-c4ccnc(OC)c4)c3n2)cn1` [Compound A62, (1-ethyl-1H-pyrazol-4-yl)-[3-(2-methoxy-pyridin-4-yl)-3H-[1,2,3]triazolo[4,5-d]pyrimidin-5-yl]-amine], less than 300 nM; for `CN1CCC(n2cc(Nc3ncc4nnn(-c5ccn(C)n5)c4n3)cn2)CC1` [Compound A139, [1-(1-methyl-piperidin-4-yl)-1H-pyrazol-4-yl]-[3-(1-methyl-1H-pyrazol-3-yl)-3H-[1,2,3]triazolo[4,5-d]pyrimidin-5-yl]-amine], 300 to 3000 nM.

Consider `CCOc1ccc(-n2nnc3cnc(Nc4cnn(CCN5CCC(O)C5)c4)nc32)cc1` (stereo not shown) [Compound A151, 1-(2-{4-[3-(4-ethoxy-phenyl)-3H-[1,2,3]triazolo[4,5-d]pyrimidin-5-ylamino]-pyrazol-1-yl}-ethyl)-pyrrolidin-3-ol], for which the IC50 was less than 300 nM.

`COc1ccc(-n2nnc3cnc(Nc4cnn(CCN5CCCC5)c4)nc32)cc1` [Compound A14, [3-(4-methoxy-phenyl)-3H-[1,2,3]triazolo[4,5-d]pyrimidin-5-yl]-[1-(2-pyrrolidin-1-yl-ethyl)-1H-pyrazol-4-yl]-amine]: the IC50 is less than 300 nM. Next, `CCn1cc(Nc2ncc3nnn(-c4cnc5ccccc5c4)c3n2)cn1` [Compound A61, (1-ethyl-1H-pyrazol-4-yl)-(3-quinolin-3-yl-3H-[1,2,3]triazolo[4,5-d]pyrimidin-5-yl)-amine]: less than 300 nM; `Fc1ccc(-n2nnc3cnc(Nc4cnn(C5CCOCC5)c4)nc32)cc1` [Compound A20, [3-(4-fluoro-phenyl)-3H-[1,2,3]triazolo[4,5-d]pyrimidin-5-yl]-[1-(tetrahydro-pyran-4-yl)-1H-pyrazol-4-yl]-amine]: less than 300 nM. Regarding `CC(C)(C)OCCn1cc(Nc2ncc3nnn(-c4ccc(Cl)c(F)c4)c3n2)cn1` [Compound A53, [1-(2-tert-butoxy-ethyl)-1H-pyrazol-4-yl]-[3-(4-chloro-3-fluoro-phenyl)-3H-[1,2,3]triazolo[4,5-d]pyrimidin-5-yl]-amine], the IC50 lay in the range of 300 to 3000 nM. Next, `Fc1cccc(-n2nnc3cnc(Nc4cnn(CCCC5CCNCC5)c4)nc32)c1` [Compound A129, [3-(3-fluoro-phenyl)-3H-[1,2,3]triazolo[4,5-d]pyrimidin-5-yl]-[1-(3-piperidin-4-yl-propyl)-1H-pyrazol-4-yl]-amine]: less than 300 nM; `COCCCn1cc(Nc2ncc3nnn(-c4ccc(Cl)c(F)c4)c3n2)cn1` [Compound A50, [3-(4-chloro-3-fluoro-phenyl)-3H-[1,2.3]triazolo[4,5-d]pyrimidin-5-yl]-[1-(3-methoxy-propyl)-1H-pyrazol-4-yl]-amine]: less than 300 nM; `CCCCOc1ccc(-n2nnc3cnc(Nc4cnn(C5CCOCC5)c4)nc32)cn1` [Compound A47, [3-(6-butoxy-pyridin-3-yl)-3H-[1,2,3]triazolo[4,5-d]pyrimidin-5-yl]-[1-(tetrahydro-pyran-4-yl)-1H-pyrazol-4-yl]-amine]: 300 to 3000 nM. Turning to `CCOc1ccc(-n2nnc3cnc(Nc4cc(-c5cnn(C)c5C)n[nH]4)nc32)cc1` [Compound A140, (1′,5′-dimethyl-1H,1′H-[3,4′]bipyrazolyl-5-yl)-[3-(4-ethoxy-phenyl)-3H-[1,2,3]triazolo[4,5-d]pyrimidin-5-yl]-amine], the IC50 lay in the range of 300 to 3000 nM. Next, `CCn1cc(Nc2ncc3nnn(-c4ccc(F)cc4C#N)c3n2)cn1` [Compound A72, 2-[5-(1-ethyl-1H-pyrazol-4-ylamino)-[1,2,3]triazolo[4,5-d]pyrimidin-3-yl]-5-fluoro-benzonitrile]: 300 to 3000 nM; `COCCCn1cc(Nc2ncc3nnn(-c4ccc(OC)cc4)c3n2)cn1` [Compound A9, [3-(4-methoxy-phenyl)-3H-[1,2,3]triazolo[4,5-d]pyrimidin-5-yl]-[1-(3-methoxy-propyl)-1H-pyrazol-4-yl]-amine]: 300 to 3000 nM; `CN1CCC(n2cc(Nc3ncc4nnn(-c5ccc(S(N)(=O)=O)cc5)c4n3)cn2)CC1` [Compound A142, 4-{5-[1-(1-methyl-piperidin-4-yl)-1H-pyrazol-4-ylamino]-[1,2,3]triazolo[4,5-d]pyrimidin-3-yl}-benzenesulfonamide]: less than 300 nM. For `OC[C@@H]1C[C@H]1Cn1cc(Nc2ncc3nnn(-c4ccc5nccnc5c4)c3n2)cn1` (relative stereo) [Compound A104, {(trans)-2-[4-(3-quinoxalin-6-yl-3H-[1,2,3]triazolo[4,5-d]pyrimidin-5-ylamino)-pyrazol-1-ylmethyl]-cyclopropyl}-methanol] the value was less than 300 nM; for `O[C@H]1CC[C@@H](n2cc(Nc3ncc4nnn(-c5ccc6nccnc6c5)c4n3)cn2)CC1` [Compound A105, 4-[4-(3-quinoxalin-6-yl-3H-[1,2,3]triazolo[4,5-d]pyrimidin-5-ylamino)-pyrazol-1-yl]-cyclohexanol], less than 300 nM. For `c1cnc2cc(-n3nnc4cnc(Nc5cnn(C6COC6)c5)nc43)ccc2c1` [Compound A112, (1-oxetan-3-yl-1H-pyrazol-4-yl)-(3-quinolin-7-yl-3H-[1,2,3]triazolo[4,5-d]pyrimidin-5-yl)-amine] the value was 300 to 3000 nM; for `Fc1cc(-n2nnc3cnc(Nc4cnn(CCN5CCOCC5)c4)nc32)ccc1Cl` [Compound A114, [3-(4-chloro-3-fluoro-phenyl)-3H-[1,2,3]triazolo[4,5-d]pyrimidin-5-yl]-[1-(2-morpholin-4-yl-ethyl)-1H-pyrazol-4-yl]-amine], 300 to 3000 nM; for `CCOc1ccc(-n2nnc3cnc(Nc4cnn(CCC(C)C)c4)nc32)cc1` [Compound A88, [3-(4-ethoxy-phenyl)-3H-[1,2,3]triazolo[4,5-d]pyrimidin-5-yl]-[1-(3-methyl-butyl)-1H-pyrazol-4-yl]-amine], less than 300 nM. Consider `CCn1cc(Nc2ncc3nnn(-c4ccc(O)cc4)c3n2)cn1` [Compound A66, 4-[5-(1-ethyl-1H-pyrazol-4-ylamino)-[1,2,3]triazolo[4,5-d]pyrimidin-3-yl]-phenol], for which the IC50 was less than 300 nM.

`CCOc1ccc(-n2nnc3cnc(Nc4cn[nH]c4)nc32)cc1` [Compound A5, [3-(4-ethoxy-phenyl)-3H-[1,2,3]triazolo[4,5-d]pyrimidin-5-yl]-(1H-pyrazol-4-yl)-amine] showed an IC50 of less than 300 nM. For `CCOc1ccc(-n2nnc3cnc(Nc4cnn([C@H]5CC[C@@H](O)CC5)c4)nc32)cc1` [Compound A19, 4-{4-[3-(4-ethoxy-phenyl)-3H-[1,2,3]triazolo[4,5-d]pyrimidin-5-ylamino]-pyrazol-1-yl}-cyclohexanol], the IC50 is less than 300 nM. Regarding `COc1ccc(-n2nnc3cnc(Nc4cnn(C5CCOCC5)c4)nc32)cc1` [Compound A13, [3-(4-methoxy-phenyl)-3H-[1,2,3]triazolo[4,5-d]pyrimidin-5-yl]-[1-(tetrahydro-pyran-4-yl)-1H-pyrazol-4-yl]-amine], the IC50 was less than 300 nM. For `COc1ccc(-n2nnc3cnc(Nc4cnn([C@H]5CC[C@@H](O)CC5)c4)nc32)nc1` [Compound A141, 4-{4-[3-(5-methoxy-pyridin-2-yl)-3H-[1,2,3]triazolo[4,5-d]pyrimidin-5-ylamino]-pyrazol-1-yl}-cyclohexanol] the value was less than 300 nM. Next, `CCn1cc(Nc2ncc3nnn(-c4ccc(C(C)(C)N)cc4)c3n2)cn1` [Compound A148, {3-[4-(1-amino-1-methyl-ethyl)-phenyl]-3H-[1,2,3]triazolo[4,5-d]pyrimidin-5-yl}-(1-ethyl-1H-pyrazol-4-yl)-amine]: 300 to 3000 nM; `CC(=O)Nc1ccc(-n2nnc3cnc(Nc4cnn(C[C@@H]5C[C@H]5CO)c4)nc32)cn1` (relative stereo) [Compound A59, N-(5-{5-[1-((trans)-2-hydroxymethyl-cyclopropylmethyl)-1H-pyrazol-4-ylamino]-[1,2,3]triazolo[4,5-d]pyrimidin-3-yl}-pyridin-2-yl)-acetamide]: 300 to 3000 nM. `Cn1ccc(-n2nnc3cnc(Nc4cnn(C5CCOCC5)c4)nc32)n1` [Compound A147, [3-(1-methyl-1H-pyrazol-3-yl)-3H-[1,2,3]triazolo[4,5-d]pyrimidin-5-yl]-[1-(tetrahydro-pyran-4-yl)-1H-pyrazol-4-yl]-amine]: the IC50 was in the range of 300 to 3000 nM. Next, `CCOc1ccc(-n2nnc3cnc(Nc4cnn(CCN5CCOCC5=O)c4)nc32)cc1` [Compound A149, 4-(2-{4-[3-(4-ethoxy-phenyl)-3H-[1,2,3]triazolo[4,5-d]pyrimidin-5-ylamino]-pyrazol-1-yl}-ethyl)-morpholin-3-one]: less than 300 nM; `COc1cc(-n2nnc3cnc(Nc4cnn(C5CCOCC5)c4)nc32)ccn1` [Compound A78, [3-(2-methoxy-pyridin-4-yl)-3H-[1,2,3]triazolo[4,5-d]pyrimidin-5-yl]-[1-(tetrahydro-pyran-4-yl)-1H-pyrazol-4-yl]-amine]: less than 300 nM.

A word on the IC50: it is the concentration at which inhibition is half-maximal. A higher IC50 goes with lower potency.
